Experimental data published in patent US10386360B2, “Bio-microelectromechanical system transducer and associated methods” (University of Central Florida Research Foundation, Inc., priority 2009, dated 2019).
“Also recorded” adds a separate entry of the source.

Tested on: contractile myotubes
Assay: Veratridine added to electrically stimulated myotubes on microcantilevers, AFM laser detection
Assay type: cell-based, rat
Parameters: dose or concentration left out as unconfirmed
Conditions: myotubes 10 days in culture, 1 Hz stimulus, veratridine final concentration
Protocol: Skeletal muscle was dissected from the hind limb thighs of a rat fetus at embryonic day 18 (Charles River Laboratories, Wilmington, Mass.) according to a previously published protocol with some modification. Tissue samples were collected in a sterile 15-ml centrifuge tube containing 1 ml of calcium and magnesium free phosphate buffered saline (PBS). Tissue samples were enzymatically disassociated using 3 ml of 0.05% of trypsin-EDTA (Invitrogen, Carlsbad, Calif.) solution for 60 min in a 37° C. water bath with agitation of 100 rpm. After 60 min, the trypsin solution was removed and 6 ml of L15 media (Invitrogen, Carlsbad, Calif.) containing 10% fetal bovine serum (FBS) was added to terminate the trypsin action. The tissue was then mechanically triturated using a sterile narrow bore Pasteur pipette, allowed to settle for 3 min, and transferred to a 15-ml centrifuge tube. This was repeated three times. The dissociated tissue was then centrifuged at 300 g for 10 minutes at 4° C. on 6 ml of a 4% (wt/vol) cushion of bovine serum albumin (BSA). The pellet was resuspended in 10 ml L15+10% FBS and plated in uncoated 100-mm Petri dishes for 20-30 min depending on the amount of tissue, to allow contaminating fibroblasts to settle out. After 20-30 minutes the supernatant was layered on 6 ml of a 4% BSA cushion, and centrifuged at 300 g for 10 min at 4° C. […]

COc1ccc(C(=O)O[C@H]2CC[C@@]3(C)[C@@H]4CC[C@H]5[C@]6(O)C[C@H](O)[C@@]7(O)[C@@H](CN8C[C@@H](C)CC[C@H]8[C@@]7(C)O)[C@]6(O)C[C@@]53O[C@]24O)cc1OC [veratridine]
ability to contract after the initial tetanic contraction: lost the ability to contract further; also recorded: lost the ability to further contract
